The values below are quoted from earlier work in patent US9255091B2, “Benzothiazole-based pyridinium compounds” (The University of Montana, priority 2011, dated 2016).

Structures are written as SMILES.

For this series, the target named is AChE P-site (Homo sapiens (Human), UniProt P22303). The conditions noted are these: binds selectively to the AChE P-site; read-out: equilibrium dissociation constant.
Sequence of AChE P-site (P22303 32-614 limits assumed): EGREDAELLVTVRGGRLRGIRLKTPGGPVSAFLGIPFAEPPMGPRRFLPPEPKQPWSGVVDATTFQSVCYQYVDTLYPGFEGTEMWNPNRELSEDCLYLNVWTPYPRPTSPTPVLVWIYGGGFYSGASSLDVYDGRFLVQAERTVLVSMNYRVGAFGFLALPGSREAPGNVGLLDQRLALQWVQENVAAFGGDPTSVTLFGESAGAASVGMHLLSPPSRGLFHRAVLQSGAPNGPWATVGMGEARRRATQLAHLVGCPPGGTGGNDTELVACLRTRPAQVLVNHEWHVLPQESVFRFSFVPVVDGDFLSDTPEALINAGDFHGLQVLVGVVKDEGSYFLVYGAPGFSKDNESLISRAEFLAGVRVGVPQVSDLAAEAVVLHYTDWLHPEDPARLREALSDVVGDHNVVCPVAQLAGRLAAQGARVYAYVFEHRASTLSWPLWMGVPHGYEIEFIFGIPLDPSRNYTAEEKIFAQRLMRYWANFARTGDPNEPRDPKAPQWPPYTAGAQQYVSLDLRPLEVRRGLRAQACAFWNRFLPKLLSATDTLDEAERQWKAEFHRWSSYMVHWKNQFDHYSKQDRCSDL

As for `Cc1ccc2c(c1)sc(-c1ccc(N(C)C)cc1)[n+]2C` [Thioflavin T], the Kd was 1000 nM.
